Test results: US20240016795A1, “BROMODOMAIN INHIBITORS FOR ANDROGEN RECEPTOR-DRIVEN CANCERS” (FORMA Therapeutics, Inc., priority 2020, published 2024)
Values joined by “and” are separate entries in the source; they are usually repeats but may differ in a detail not shown here. Identical values can stand only once.

Columns and labels:
[1] = test system: AR+ prostate cancer cell lines (LnCaP, VCaP, 22Rv1); experiment: 10-day proliferation assay, all AR+ prostate cancer cell lines; type: cell-based; conditions: 240 h; 10-day assay; read-out: growth inhibitory effect (IC50), all AR+ cell lines
Description: Two AR-negative prostate cancer cell lines DU145 and PC-3 were also evaluated.
(§1) Prostate cell lines were obtained from ATCC or DSMZ and cultured according to the distributor's recommendations. Prostate cancer cells were plated and incubated overnight. […] Cell viability was assessed using a CellTiter-Glo® assay (Promega) after 10 days drug exposure. The growth inhibitory effect was assessed by the concentration inhibiting growth by 50% using a nonlinear regression equation and a variable slope (Graphpad Prism).

HCC1187 = experiment: 10-day CellTiter-Glo antiproliferative assay, HCC1187; type: cell-based; conditions: Homo sapiens, HCC1187, 240 h, 10-day exposure, AR High, ER −, Her2 −
Description: (§2) Breast cell lines were cultured according to the distributor's recommendations. The following day, cells were exposed to compounds up to 10 days. Cell viability was assessed using a CellTiter-Glo® assay (Promega) at the end of the incubation period. The growth inhibitory effect was assessed by the concentration inhibiting growth by 50% using a nonlinear regression equation and a variable slope (Graphpad Prism). The mRNA expression levels for the androgen receptor (HUGO: AR) was determined from the DepMap Portal database (release 19Q2).

KLK3 (PSA) [2] = experiment: qPCR gene expression in 22Rv1, KLK3 (PSA); type: cell-based; conditions: Homo sapiens, 22Rv1, 24 h
Description: (§3) RNA was extracted using Qiacube RNAeasy Mini (Qiagen). For all genes tested, the qPCR reactions were carried out in triplicate with 250 ng RNA per reaction and Taqman® primer-probes. GAPDH was used as a housekeeping gene.

AR target genes [3] = experiment: Reduction of AR target genes in VCaP cells; type: cell-based; conditions: Homo sapiens, 24 hr exposure
Description: as §3

VCaP = experiment: 10-day prostate cancer cell proliferation assay, VCaP; type: cell-based; conditions: Homo sapiens, VCaP, 240 h; 10 days exposure; WT, AR amplification, androgen-dependent
Description: as §1

SPDEF [4] = experiment: qPCR gene expression in 22Rv1, SPDEF; type: cell-based; conditions: Homo sapiens, 22Rv1, 24 h
Description: as §3

SPDEF [5] = experiment: qPCR gene expression in VCaP, SPDEF; type: cell-based; conditions: Homo sapiens, 24 h
Description: as §3

TMPRSS2 [6] = experiment: qPCR gene expression in VCaP, TMPRSS2; type: cell-based; conditions: Homo sapiens, 24 h
Description: as §3

MDA-MB-453 = experiment: 10-day CellTiter-Glo antiproliferative assay, MDA-MB-453; type: cell-based; conditions: Homo sapiens, MDA-MB-453, 240 h; 10-day exposure, CellTiter-Glo; AR High, ER −, Her2 +/−; read-out: IC50 (μM), MDA-MB-453
Description: as §2

MYC [7] = experiment: qPCR gene expression in VCaP, MYC; type: cell-based; conditions: Homo sapiens, 24 h
Description: as §3

H3K27Ac = H3K27Ac western blot in a prostate cancer cell line; type: cell-based
AR-v7 = AR-v7 protein level by western blot in prostate cancer cells; type: cell-based
CAMA1 = experiment: 10-day CellTiter-Glo antiproliferative assay, CAMA1; type: cell-based; conditions: Homo sapiens, CAMA-1, 240 h, 10-day exposure, AR High, ER +, Her2 −
Description: as §2

MYC [8] = experiment: qPCR gene expression in AR-v7+ prostate cancer cells, MYC; type: cell-based; conditions: 24 h
Description: (§4) AR-v7+ prostate cancer cells were exposed to compounds 1, 2, 3, or 4 for 24 h. RNA was extracted and gene expression was measured by qPCR using Taqman® primer-probes. GAPDH was used as a housekeeping gene.

FKBP5 [9] = experiment: qPCR gene expression in VCaP, FKBP5; type: cell-based; conditions: Homo sapiens, 24 h
Description: as §3

KLK3 (PSA) [10] = experiment: qPCR gene expression in VCaP, KLK3 (PSA); type: cell-based; conditions: Homo sapiens, 24 h
Description: as §3

AR = AR protein level by western blot in prostate cancer cells; type: cell-based
[11] = test system: human kinases and disease-relevant mutant variants; experiment: KINOMEscan screen; type: binding
AR target genes [12] = experiment: Reduction of AR target genes in 22Rv1 cells; type: cell-based; conditions: Homo sapiens, 24 hr exposure
Description: as §3

[13] = test system: panel of 10 BRD representing the various branches of the bromodomain tree; experiment: AlphaScreen panel of 10 bromodomains; type: binding
MDA-MB-231 = experiment: 10-day CellTiter-Glo antiproliferative assay, MDA-MB-231; type: cell-based; conditions: Homo sapiens, MDA-MB-231, 240 h, 10-day exposure, AR Low, ER −, Her2 −
Description: as §2

p300 bromodomain = p300 bromodomain (Homo sapiens (Human), UniProt Q09472); experiment: Time-resolved fluorescence biochemical assay, p300; type: binding; conditions: GST fusion of the p300 bromodomain
Chain of p300 bromodomain (Q09472 1049-1156): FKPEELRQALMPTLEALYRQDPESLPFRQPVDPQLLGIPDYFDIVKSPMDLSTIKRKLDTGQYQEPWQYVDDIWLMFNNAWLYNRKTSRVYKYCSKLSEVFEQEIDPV
Source text: Data is fitted using the Levenburg Marquardt algorithm. […] Data is fitted using the Levenburg Marquardt algorithm.

TMPRSS2 [14] = experiment: qPCR gene expression in 22Rv1, TMPRSS2; type: cell-based; conditions: Homo sapiens, 22Rv1, 24 h
Description: as §3

LNCaP = experiment: 10-day prostate cancer cell proliferation assay, LNCaP; type: cell-based; conditions: Homo sapiens, LNCaP, 240 h; 10 days exposure; T878A/WT, androgen-dependent
Description: as §1

KLK3 = experiment: qPCR gene expression in AR-v7+ prostate cancer cells, KLK3; type: cell-based; conditions: 24 h
Description: as §4

CAL148 = experiment: 10-day CellTiter-Glo antiproliferative assay, CAL148; type: cell-based; conditions: Homo sapiens, CAL-148, 240 h, 10-day exposure, AR Low, ER −, Her2 −
Description: as §2

FKBP5 [15] = experiment: qPCR gene expression in 22Rv1, FKBP5; type: cell-based; conditions: Homo sapiens, 22Rv1, 24 h
Description: as §3

[16] = test system: AR+ triple negative breast cancer xenograft; experiment: AR+ triple negative breast cancer cell line derived xenograft; type: in vivo, NOD SCID mice; conditions: 50 mg/kg orally daily
Description: Briefly, AR-positive breast cancer tumor cells (1×107) were implanted subcutaneously in the flank of 6-8-week-old NOD SCID mice. Mice were randomized, and treatment started when mean tumor size reached 160 mm^3 (8 mice per cohort). […] Tumor volume (TV) was measured twice weekly by caliper and the tumor volume (mm^3) calculated as follows: TV=a×b×b/2, where “a” and “b” are long and short diameters of a tumor, respectively.
The average body weight loss was 3.7%.
The study was completed using methods analogous to those described in Example 7, above.
Three dosing cycles were completed for mice within these cohorts.
Mice in the 30 mg/kg cohort were dosed daily for three weeks.
Tumor volume was assessed at Day 14, Day 17, Day 21, Day 24, and Day 27 of the study.

`COC(=O)N1c2ccc3c(nc([C@H](O)c4cc(F)ccc4OC)n3[C@@H]3CCC[C@@H](C(=O)O)C3)c2CC[C@@H]1C` [Compound 1, (1R,3R)-3-[(7S)-2-[(R)-(5-fluoro-2-methoxyphenyl)(hydroxy)methyl]-6-(methoxycarbonyl)-7-methyl-3H,6H,7H,8H,9H-imidazo[4,5-f]quinolin-3-yl]cyclohexane-1-carboxylic acid] showed an IC50 [1] of 500 to 1500 nM, an IC50 (HCC1187) of 0.2 to 0.5 µM and an IC50 (KLK3 (PSA) [2]) of 0.01 to 0.05 µM. For the same compound, the IC50 (AR target genes [3]) was < 500 nM, the IC50 (VCaP) was 500 to 1000 nM and the IC50 (SPDEF [4]) was > 0.1 µM. For the same compound, the IC50 (SPDEF [5]) was > 0.1 µM, the IC50 (TMPRSS2 [6]) was 0.01 to 0.05 µM and the IC50 (MDA-MB-453) was < 0.2 µM. The IC50 (MYC [7]) was 0.05 to 0.1 µM, the H3K27Ac level (H3K27Ac) was “reduces H3K27Ac in a concentration-dependent manner” and the “AR-v7 reduction maintained after removal of compound” value (AR-v7; 22Rv1, after a 24 hr exposure) was 72 h. The AR-v7 protein level (AR-v7; androgen-independent (AR-v7+) prostate cancer cells, western blot) was “reduced”, the IC50 (CAMA1) was < 0.2 µM and the IC50 (MYC [8]) was > 100 nM. For the same compound, the IC50 (FKBP5 [9]) was > 0.1 µM, the IC50 (KLK3 (PSA) [10]) was 0.01 to 0.05 µM and the “return of AR to baseline level following removal of compound” value (AR; 22Rv1, after a 24 hr exposure) was ≤ 24 h. For the same compound, the AR protein level (AR; androgen-independent and androgen-dependent prostate cancer cell lines, western blot) was “dose dependent reduction”, the “binding affinity for kinases” value [11] was “no to low binding affinity” and the IC50 (AR target genes [12]) was < 500 nM. For the same compound, the “activity against panel of bromodomains” value [13] was “inactive against 8”, the IC50 ([13]; read-out: IC50 in multiple assays of the panel of 10 bromodomains) was > 10000 nM and the IC50 (MDA-MB-231) was > 1 µM. For the same compound, the IC50 (p300 bromodomain) was < 2 nM and ~1 nM, the IC50 (TMPRSS2 [14]) was < 0.01 µM and the IC50 (LNCaP) was > 1000 nM. The IC50 (KLK3) was 10 to 50 nM, the IC50 (CAL148) was > 1 µM and the IC50 (FKBP5 [15]) was > 0.1 µM. The “average body weight loss” value [16] was 3.7% and the “tumor growth inhibition (TGI)” value ([16]; end of treatment, versus vehicle control) was 104%.
